Measurements reported in EP2992879B1, “PHARMACEUTICAL COMPOSITION FOR […] OF MOTOR NEURONS AND USE THEREOF” (China Medical University, priority 2012, dated 2014).

Key:
[1] = tested on: SOD1-G93A transgenic mice; assay: In vivo analysis: survival of SOD1-G93A transgenic mice; settings: 60-day-old SOD1-G93A transgenic mice, oral administration, 500 mg/kg-body weight once daily; for Survival days: n = 8, untreated control 127 ± 6.11, 500 mg/kg
From the text: It has been known that about 20% of amyotrophic lateral sclerosis patients were associated with mutations in the gene that encodes Cu/Zn superoxide dismutase enzyme (SOD1), and G93A was the major mutation site. […] A SOD1-G93A transgenic mouse will show the symptoms of amyotrophic lateral sclerosis within about 90±5 days postnatal and will die within about 125±5 days postnatal.
This example used the above SOD1-G93A transgenic mice as the object of study to perform in vivo analysis. SOD1-G93A transgenic mice (60-day-old) were treated with butylidenephthalide (purchased from ECHO Chemical) by oral administration, with a dosage of 500 mg/ kg-body weight once daily, wherein the unit "mg/kg-body weight" means the dosage required per kg-body weight. […]

[2] = tested on: SOD1-G93A transgenic mice; assay: Histochemical staining (hematoxylin and eosin): count of spinal motor neurons; assay type: in vivo; settings: spinal cord, mice sacrificed in extremis
Experimental: SOD1-G93A transgenic mice (60-day-old) were treated with butylidenephthalide by oral administration, with a dosage of 500 mg/ kg-body weight once daily. The SOD1-G93A transgenic mice in the experimental group were sacrificed in extremis, and the spinal cord was collected to perform hematoxylin and eosin stain. The number of motor neurons in the spinal cord was observed and counted by using a microscope, and the data was compared with that of the untreated control group.

LC3-II [3] = assay: Cellular experiment: Western blotting of LC3-II in NSCs after H2O2 stimulation of autophagy; assay type: cell-based, mouse; settings: 10 µg/mL for 12 hours, then H2O2 (2500 µM/mL) for 12 hours
Experimental: Cellular experiment was performed by using NSCs (neural stem cells) which can differentiate into mouse motor neurons to imitate mouse motor neurons.
NSCs were incubated in a culture dish (10 cm in diameter). The cells were washed with PBS when grown to a density of 60% confluence, and treated with different concentrations of butylidenephthalide for 12 hours. The cells were then treated with H2O2 (2500 µM/mL) for 12 hours to stimulate the autophagy of cells. Then, the cells were collected and the proteins were extracted, and the protein expression level of LC3-II in NSC was analyzed by SDS-PAGE and Western blotting.

[4] = tested on: SOD1-G93A transgenic mice; assay: In vivo analysis: BBB Locomotor Rating Scale of the hind limbs; settings: oral 500 mg/kg-body weight once daily from day 60
Experimental: SOD1-G93A transgenic mice (60-day-old) were treated with butylidenephthalide by oral administration, with a dosage of 500 mg/ kg-body weight once daily. After the mice were treated for 30 days, the hind limbs of the mice were examined by BBB scale (Basso, Beattie, and Bresnahan (BBB) Locomotor Rating Scale). The BBB scale of the hind limbs of normal mice was 21 points, while the BBB scale of disease-progressed SOD1-G93A transgenic mice decreased from 21 to 0 points, wherein the lower scale represents a more severe action disorder in the mice. BBB scale is used to record the drug efficiency.

LC3-II [5] = assay: Western blotting of autophagy biomarker in spinal cord; assay type: in vivo, mice; settings: cervical, thoracic and lumbar spinal cord, compared with untreated control; oral 500 mg/kg-body weight once daily; β-actin internal control
Experimental: SOD1-G93A transgenic mice (60-day-old) were treated with butylidenephthalide by oral administration, with a dosage of 500 mg/ kg-body weight once daily. It has been indicated by research that SOD1-G93A transgenic mice lost its spinal motor neurons because of the significant increase of autophagy during the last phase of amyotrophic lateral sclerosis (which can be seen in In vivo optical imaging of motor neuron autophagy in a mouse model of amyotrophic lateral sclerosis. Autophagy 7:9, 1-8; September 2011, which is entirely incorporated hereinto by reference). Therefore, in this example, the SOD1-G93A transgenic mice in experimental group were sacrificed in extremis to collect their spinal cord, and the proteins were extracted from the spinal cord to perform Western blotting and to analyze the protein biomarker of autophagy, LC3-II, which was used to determine whether autophagy occurred in the lumbar spinal motor neurons of the mice, wherein β-actin was used as an internal control.

## CCCC=C1OC(=O)c2ccccc21 [butylidenephthalide]
[1]
  life lengthened as compared to the untreated control group: about 22 ± 2 days
  Survival days: about 149 ± 4.39 days
[1]; listed as n-BP
  Survival days: 149 ± 4.39 days
[2]; oral 500 mg/kg-body weight once daily from day 60, control 3 ± 3.1
  The number of motor neurons: 24
[2]; oral 500 mg/kg-body weight once daily from day 60, control 3 ± 3.1, listed as n-BP
  The number of motor neurons: 24 ± 4.2
LC3-II [3]
  protein expression level of LC3-II in NSC: decrease the protein expression level of LC3-II
[4]; after 135 days (decreased rapidly)
  BBB scale of the hind limbs: 16 to 0 points
[4]; from 125 to 135 days (decreased slowly), normal mice 21 points, control fell from 19 to 0 after 110 days
  BBB scale of the hind limbs: 21 to 16 points
LC3-II [5]
  protein expression level of LC3-II and pLC3-II: significantly decreased
